Test results: US8097422B2, “Kir channel modulators” (Salk Institute for Biological Studies, priority 2007, dated 2012)
Each block holds one compound with its values, some of them ahead of it.

Key:
IRK1 channel = target: T1, IRK1 channel (Mus musculus, UniProt P35561); test: whole-cell patch clamp, HEK293T cells transfected with IRK1; type: cell-based; settings: n=5; for inhibition of IRK1 channel, percentage inhibition: equimolar 50 mM alcohol series
T1 construct: expressed in transfected cells; host or cells: HEK293T
T1 sequence (P35561 1-428): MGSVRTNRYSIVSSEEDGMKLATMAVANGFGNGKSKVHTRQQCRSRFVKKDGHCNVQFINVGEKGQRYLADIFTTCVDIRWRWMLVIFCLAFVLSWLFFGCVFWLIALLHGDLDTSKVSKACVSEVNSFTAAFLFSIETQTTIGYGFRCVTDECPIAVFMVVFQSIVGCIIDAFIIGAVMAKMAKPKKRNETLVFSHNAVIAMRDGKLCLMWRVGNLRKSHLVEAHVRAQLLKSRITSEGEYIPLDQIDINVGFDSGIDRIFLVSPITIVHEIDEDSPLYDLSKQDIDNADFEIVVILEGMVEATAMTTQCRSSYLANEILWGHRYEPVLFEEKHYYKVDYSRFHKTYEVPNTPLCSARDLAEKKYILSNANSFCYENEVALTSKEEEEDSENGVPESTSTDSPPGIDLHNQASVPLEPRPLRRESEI
Protocol: Using whole-cell patch clamp, technique in HEK293T cells transfected with IRK1 or GIRK2 channels, it was determined that MPD does in fact modulate these channels. Addition of 100 mM MPD inhibits the inward currents of the IRK1 channel, without changing the reversal potential or altering inward rectification (FIG. 1e).
GIRK2c, GIRK4, IRK1, M2R and m-Phosducin were subcloned into PCDNA3.1 vector (Invitrogen). Point mutations were introduced by Quickchange site directed mutagenesis kit (Stratagene). The GIRK2 PIP mutant was generated by overlap-PCR method. Briefly, amino acid 216-NLRKSHL-222 (SEQ ID NO: 25) of IRK1 was swapped into 228-DLRNSHL-234 (SEQ ID NO: 26) of GIRK2, in the region designated βC-βD loop in the crystal structure. Mutations were confirmed by automated DNA sequencing methods.
HEK 293T cells were cultured in DMEM supplemented with 10% FBS, and 1× Glutamax (Invitrogen) in a humidified 37° incubator with 5% CO2. Cells were plated in a 12 well dish, and were transiently transfected using Lipofectamine 2000 (Invitrogen). After 12-24 hrs, cells were re-plated to 12-mm glass coverslips coated with poly-D-Lysine (20 microgram/ml).
HEK293 cells were transfected with 0.2 micrograms of channel cDNA. The cells were co-transfected with 0.04 micrograms of eYFP cDNA to identify transfected cells. 0.8 micrograms of Muscarinic Receptor 2 (M2R) was also co-transfected for experiments with Carbachol. For experiments with and without m-phosducin, 0.8 ug of m-phosducin cDNA was used versus a PCDNA3.1 vector control.
Whole-cell patch clamp recordings were performed 24-72 hrs after transfection. Borosilicate glass electrodes (Warner Instruments) of […] filled with intracellular solution (130 mM KCl, 20 mM NaCl, 5 mM EGTA, 2.56 mM K2ATP, 5.46 mM MgCl2, 0.30 mM Li2GTP, and 10 mM HEPES (pH 7.4)) was used. Membrane currents were recorded using Axopatch 200B (Axon Instruments) amplifier, adjusted electronically for cell capacitance and series resistance (80-100%), filtered at 1 kHz with an 8-pole Bessel filter and digitized at 5 kHz with a Digidata 1200 interface (Axon Instruments). The cells rapidly perfused with a 20 mM K^+ (20K) solution (20 mM KCl, 140 mM NaCl, 0.5 mM CaCl2, 2 mM MgCl2 and 10 mM HEPES (pH7.4)). Alcohols, 5 μM Carbachol, and 1 mM BaCl2 (diluted in 20K solution) were applied from outside the cell with the rapid perfusion system (Warner Instruments). Whole-cell currents were measured using a ramp protocol that holds at −40 mV, steps to −100 mV then ramps to +50 mV and repeats every 2 seconds. Current-voltage relationships also were obtained from the ramp protocol. This protocol was used to measure the inwardly rectifying currents at −100 mV and to ensure stability of recording by monitoring a reversal potential and inward rectification. Current density was measured by dividing inward current at −100 mV by membrane capacitance that was compensated during the recording. Basal currents were measured as the Ba^++ blocked inward currents at −100 mV. Alcohol and Carbachol modulated currents were measured by averaging two consecutive current readings upon reaching steady state, and subtracting the averaged basal current before and after the application of modulator. Pooled data are presented as Mean±SEM and evaluated for statistical significance by a 1-way ANOVA, followed by Bonferroni's multiple comparison post-hoc test.

[1] = target: T2, GIRK4* Leu252 to Ala mutant channel (Rattus norvegicus, UniProt P48548, L252A/S143T); test: whole-cell patch clamp, GIRK4* L252A mutant channel; type: cell-based; settings: for percent activation of GIRK4* Leu252 to Ala mutant: n=8
T2 construct: expressed in transfected cells; host or cells: HEK293 / HEK293T
T2 sequence (P48548 1-419 S143T/L252A): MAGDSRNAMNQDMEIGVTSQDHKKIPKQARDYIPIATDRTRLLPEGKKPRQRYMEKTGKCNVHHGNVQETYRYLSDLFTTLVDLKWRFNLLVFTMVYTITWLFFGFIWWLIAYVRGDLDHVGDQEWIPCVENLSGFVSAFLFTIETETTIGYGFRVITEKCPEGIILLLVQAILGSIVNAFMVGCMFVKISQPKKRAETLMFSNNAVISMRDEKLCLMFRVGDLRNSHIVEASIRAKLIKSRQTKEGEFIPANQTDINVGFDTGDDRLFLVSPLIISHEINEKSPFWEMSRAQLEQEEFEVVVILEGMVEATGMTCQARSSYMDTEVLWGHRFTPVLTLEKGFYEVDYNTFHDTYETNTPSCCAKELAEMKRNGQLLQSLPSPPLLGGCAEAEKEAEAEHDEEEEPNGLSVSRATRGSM
Protocol: Point mutations were introduced by Quickchange site directed mutagenesis kit (Stratagene). The GIRK2 PIP mutant was generated by overlap-PCR method. […] Mutations were confirmed by automated DNA sequencing methods. […] Cells were plated in a 12 well dish, and were transiently transfected using Lipofectamine 2000 (Invitrogen). After 12-24 hrs, cells were re-plated to 12-mm glass coverslips coated with poly-D-[…] microgram/ml). […] The cells were co-transfected with 0.04 micrograms of eYFP cDNA to identify transfected cells. 0.8 micrograms of Muscarinic Receptor 2 (M2R) was also co-transfected for experiments with Carbachol. […] Whole-cell patch clamp recordings were performed 24-72 hrs after transfection. […] Alcohols, 5 μM Carbachol, and 1 mM BaCl2 (diluted in 20K solution) were applied from outside the cell with the rapid perfusion system (Warner Instruments). […] Current-voltage relationships also were obtained from the ramp protocol. This protocol was used to measure the inwardly rectifying currents at -100 mV and to ensure stability of recording by monitoring a reversal potential and inward rectification. […] Alcohol and Carbachol modulated currents were measured by averaging two consecutive current readings upon reaching steady state, and subtracting the averaged basal current before and after the application of modulator.

Compound: 1-butanol [1-BuOH]
inhibition of IRK1 channel, percentage inhibition (IRK1 channel): −20±3%

Compound: 1-propanol [1-PrOH]
inhibition of IRK1 channel, percentage inhibition (IRK1 channel): −12±2%
percent activation of GIRK4* Leu252 to Ala mutant [1]: 86±8%

Compound: CCO [EtOH, ethanol]
inhibition of IRK1 channel, percentage inhibition (IRK1 channel): −5±1%

The next lines start with the values.

inhibition at 100000 µM (IRK1 channel; HEK-293T, 100 mM MPD, -100 mV, read-out: percent change of basal current, IRK): 32.5 ± 3.9%
inhibition of IRK1 channel, percentage inhibition (IRK1 channel): −25±3%
percent activation of GIRK4* Leu252 to Ala mutant [1]: 179±22%
Compound: CC(O)CC(C)(C)O (racemic) [MPD, 2-methyl-2,4-pentanediol]

Carb (G-protein mediated) activation, GIRK4* L252 Ala ([1]; 5 μM Carbachol): 51±8%
Compound: C[N+](C)(C)CCOC(N)=O [Carbachol]
